molecular target: T1, TDO (A172 human glioblastoma cells) (Homo sapiens, UniProt P48775); test: A172 Kynurenine cell based assay; details: 500 μM L-tryptophan, 48 hours, kynurenine by Erhlich's reagent
T1 construct: This assay utilised cancer cells which expressed either TDO or IDO; endogenous in cells; host or cells: A172 human glioblastoma cells
Procedure, shortened: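 A172 glioblastoma cells (30,000/well) cultured at 37° C. in phenol red-free RPMI with 10% FCS, 2 mM L-glutamine and 500 μM L-tryptophan, with or without test compound. After 48 hours, kynurenine in the supernatant was read with Erhlich's reagent (5 min) as absorbance at 490 nm.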

T1 sequence (P48775 whole entry): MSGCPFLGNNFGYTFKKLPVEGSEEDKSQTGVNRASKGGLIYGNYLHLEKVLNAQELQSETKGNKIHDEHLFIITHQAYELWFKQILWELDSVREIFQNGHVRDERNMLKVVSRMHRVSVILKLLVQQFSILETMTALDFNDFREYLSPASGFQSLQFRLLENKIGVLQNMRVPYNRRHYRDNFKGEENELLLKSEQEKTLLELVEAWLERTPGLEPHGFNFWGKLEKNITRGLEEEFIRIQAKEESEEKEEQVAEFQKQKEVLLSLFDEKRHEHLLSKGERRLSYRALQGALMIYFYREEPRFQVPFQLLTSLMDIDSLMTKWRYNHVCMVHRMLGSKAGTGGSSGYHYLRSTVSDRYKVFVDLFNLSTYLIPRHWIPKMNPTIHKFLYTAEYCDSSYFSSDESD

SMILES | A172 Kynurenine cell based assay pIC50
CS(=O)(=O)N1CCN(c2c[nH]c3ccccc23)CC1 [Compound 108] | + (+ = pIC50 4.00-4.99)
CC(=O)N1CC=C(c2c[nH]c3ccc(OCc4ccccc4)cc23)CC1 [Compound 155] | + (+ = pIC50 4.00-4.99)
CC(=O)N1CC=C(c2c[nH]c3cc(OCc4ccccc4)ccc23)CC1 [Compound 156] | + (+ = pIC50 4.00-4.99)
CC(=O)N1CC=C(c2c[nH]c3cccnc23)CC1 [Compound 157] | + (+ = pIC50 4.00-4.99)
CC(=O)N1CCC(c2c[nH]c3ccc(F)cc23)CC1 [Compound 158] | + (+ = pIC50 4.00-4.99)
CS(=O)(=O)N1CCC(c2c[nH]c3ccc(F)cc23)CC1 [Compound 159] | ++ (++ = pIC50 5.00-5.99)
Cc1[nH]c2ccccc2c1C1=CCN(S(C)(=O)=O)CC1 [Compound 160] | +− (+− = pIC50 <4.00)
Cc1[nH]c2ccccc2c1C1CCN(S(C)(=O)=O)CC1 [Compound 161] | +− (+− = pIC50 <4.00)
COc1cccc2[nH]cc(C3=CCN(C(C)=O)CC3)c12 [Compound 169] | + (+ = pIC50 4.00-4.99)
CS(=O)(=O)N1CC=C(c2c[nH]c3ccncc23)CC1 [Compound 170] | ++ (++ = pIC50 5.00-5.99)
CS(=O)(=O)N1CC=C(c2c[nH]c3cnccc23)CC1 [Compound 171] | ++ (++ = pIC50 5.00-5.99)
CC(=O)N1CC=C(c2c[nH]c3ccncc23)CC1 [Compound 172] | + (+ = pIC50 4.00-4.99)
Fc1ccc2c(C3CCN(c4ncccn4)CC3)c[nH]c2c1 [Compound 180] | + (+ = pIC50 4.00-4.99)
CC(=O)N1CCCC(c2c[nH]c3cc(F)ccc23)CC1 (stereo not drawn) [Compound 181] | ++ (++ = pIC50 5.00-5.99)
CS(=O)(=O)N1CCCC(c2c[nH]c3cc(F)ccc23)CC1 (stereo not drawn) [Compound 182] | ++ (++ = pIC50 5.00-5.99)
Cc1noc(N2CCC(c3c[nH]c4cc(F)ccc34)CC2)n1 [Compound 183] | ++ (++ = pIC50 5.00-5.99)
Cc1nc(N2CCC(c3c[nH]c4cc(F)ccc34)CC2)no1 [Compound 184] | ++ (++ = pIC50 5.00-5.99)
CC1CN(c2c[nH]c3ccccc23)CCN1S(C)(=O)=O (stereo not drawn) [Compound 186] | ++ (++ = pIC50 5.00-5.99)
CN1CCN(c2c[nH]c3ccccc23)CC1=O [Compound 189] | + (+ = pIC50 4.00-4.99)
CC(=O)N1CC=C(c2c[nH]c3cc(C)ccc23)CC1 [Compound 205] | + (+ = pIC50 4.00-4.99)
CS(=O)(=O)N1CC=C(c2c[nH]c3ccccc23)CC1 [Compound 209] | ++ (++ = pIC50 5.00-5.99)
CC(=O)N1CC=C(c2c[nH]c3ccccc23)CC1 [Compound 210] | ++ (++ = pIC50 5.00-5.99)
NS(=O)(=O)N1CCC(c2c[nH]c3ccccc23)CC1 [Compound 218] | ++ (++ = pIC50 5.00-5.99)
CS(=O)(=O)N1CC=C(c2c[nH]c3cc(Cl)c(F)cc23)CC1 [Compound 227] | ++ (++ = pIC50 5.00-5.99)
NS(=O)(=O)N1CCC(c2c[nH]c3cc(F)ccc23)CC1 [Compound 249] | ++ (++ = pIC50 5.00-5.99)
O=C(C(F)F)N1CCC(c2c[nH]c3cc(F)ccc23)CC1 [Compound 260] | ++ (++ = pIC50 5.00-5.99)
Cn1cccc1C(=O)N1CCC(c2c[nH]c3cc(F)ccc23)CC1 [Compound 278] | + (+ = pIC50 4.00-4.99)

molecular target: T2, IDO (SKOV3 human ovarian adenocarcinoma cells, IFN-γ induced) (Homo sapiens, UniProt P14902); test: SKOV3 Kynurenine cell based assay; details: IDO induced by 500 ng/ml IFN-γ, 500 μM L-tryptophan, 48 hours
T2 construct: IDO expression was induced in the SKOV3 cells by the addition of 500 ng/ml IFN-γ; endogenous in cells; host or cells: SKOV3 human ovarian adenocarcinoma cells, induced with IFN-γ
Procedure, shortened: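 IFN-γ (500 ng/ml) induced IDO in SKOV3 cells, seeded at 40,000/well in phenol red-free RPMI with 10% FCS, 2 mM L-glutamine and 500 μM L-tryptophan. Cells were incubated with or without compound at 37° C for 48 h. Supernatant kynurenine was detected with Ehrlich's reagent.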

T2 sequence (P14902 whole entry): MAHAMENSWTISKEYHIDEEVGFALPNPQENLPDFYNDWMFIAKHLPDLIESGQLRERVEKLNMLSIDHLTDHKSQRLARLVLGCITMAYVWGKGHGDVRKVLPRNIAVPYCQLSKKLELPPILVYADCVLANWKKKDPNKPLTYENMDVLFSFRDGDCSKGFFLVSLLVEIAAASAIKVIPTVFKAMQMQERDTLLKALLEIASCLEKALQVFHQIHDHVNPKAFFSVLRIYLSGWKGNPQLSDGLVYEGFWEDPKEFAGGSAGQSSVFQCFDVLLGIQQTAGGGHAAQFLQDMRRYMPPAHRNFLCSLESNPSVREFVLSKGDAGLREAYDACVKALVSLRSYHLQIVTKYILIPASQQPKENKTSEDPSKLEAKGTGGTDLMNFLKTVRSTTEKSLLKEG

SMILES | SKOV3 Kynurenine cell based assay pIC50
CS(=O)(=O)N1CCN(c2c[nH]c3ccccc23)CC1 [Compound 108] | +− (+− = pIC50 <4.00)
CC(=O)N1CC=C(c2c[nH]c3ccc(OCc4ccccc4)cc23)CC1 [Compound 155] | + (+ = pIC50 4.00-4.99)
CC(=O)N1CC=C(c2c[nH]c3cc(OCc4ccccc4)ccc23)CC1 [Compound 156] | + (+ = pIC50 4.00-4.99)
CC(=O)N1CC=C(c2c[nH]c3cccnc23)CC1 [Compound 157] | + (+ = pIC50 4.00-4.99)
CC(=O)N1CCC(c2c[nH]c3ccc(F)cc23)CC1 [Compound 158] | +− (+− = pIC50 <4.00)
CS(=O)(=O)N1CCC(c2c[nH]c3ccc(F)cc23)CC1 [Compound 159] | +− (+− = pIC50 <4.00)
Cc1[nH]c2ccccc2c1C1=CCN(S(C)(=O)=O)CC1 [Compound 160] | + (+ = pIC50 4.00-4.99)
Cc1[nH]c2ccccc2c1C1CCN(S(C)(=O)=O)CC1 [Compound 161] | + (+ = pIC50 4.00-4.99)
COc1cccc2[nH]cc(C3=CCN(C(C)=O)CC3)c12 [Compound 169] | + (+ = pIC50 4.00-4.99)
CS(=O)(=O)N1CC=C(c2c[nH]c3ccncc23)CC1 [Compound 170] | + (+ = pIC50 4.00-4.99)
CS(=O)(=O)N1CC=C(c2c[nH]c3cnccc23)CC1 [Compound 171] | +− (+− = pIC50 <4.00)
CC(=O)N1CC=C(c2c[nH]c3ccncc23)CC1 [Compound 172] | + (+ = pIC50 4.00-4.99)
Fc1ccc2c(C3CCN(c4ncccn4)CC3)c[nH]c2c1 [Compound 180] | ++ (++ = pIC50 5.00-5.99)
CC(=O)N1CCCC(c2c[nH]c3cc(F)ccc23)CC1 (stereo not drawn) [Compound 181] | +− (+− = pIC50 <4.00)
CS(=O)(=O)N1CCCC(c2c[nH]c3cc(F)ccc23)CC1 (stereo not drawn) [Compound 182] | + (+ = pIC50 4.00-4.99)
Cc1noc(N2CCC(c3c[nH]c4cc(F)ccc34)CC2)n1 [Compound 183] | + (+ = pIC50 4.00-4.99)
Cc1nc(N2CCC(c3c[nH]c4cc(F)ccc34)CC2)no1 [Compound 184] | + (+ = pIC50 4.00-4.99)
CC1CN(c2c[nH]c3ccccc23)CCN1S(C)(=O)=O (stereo not drawn) [Compound 186] | +− (+− = pIC50 <4.00)
CN1CCN(c2c[nH]c3ccccc23)CC1=O [Compound 189] | +− (+− = pIC50 <4.00)
Cn1cccc1C(=O)N1CCC(c2c[nH]c3cc(F)ccc23)CC1 [Compound 278] | ++ (++ = pIC50 5.00-5.99)

molecular target: Recombinant human TDO (Homo sapiens, UniProt P48775); test: hTDO biochemical coupled assay; details: 330 μM L-tryptophan, coupled with kynurenine formamidase
Method: (§1) Exemplary compounds of the invention were prepared, and tested to determine their effect as TDO and/or IDO inhibitors. Two different assays were employed: 1. a cell-based assay for detecting the effect of test compounds on kynurenine production in two different cancer cell types. This assay utilised cancer cells which expressed either TDO or IDO and as such was used as a means of testing compound activity at these two enzymes in a cell-based context. 2. a TDO and IDO biochemical coupled assay which utilised recombinantly produced and purified TDO and IDO enzymes in combination with the enzyme formamidase. This coupled enzyme system allowed conversion of N-formylkynurenine produced by TDO or IDO activity to kynurenine which was then quantified by fluorescence following addition of Erhlich's Reagent The protocols for these are set out below.
Recombinant human IDO or TDO was incubated in 50 mM KPO4 (pH 7.0), 0.5 mM EGTA, 0.5 mM EDTA, 0.05% Triton™ X100, 20 mM ascorbate, 10 μM methylene blue, 500 U/ml catalase, 50 μg/ml KynB (kynurenine formamidase). TDO assays were carried out in the presence of 330 μM L-tryptophan, while IDO assays had the addition of 45 μM L-tryptophan. After incubation for 17 minutes at room temperature the reactions were stopped by the addition of Erhlich's reagent and incubated at room temperature for 5 minutes before the fluorescence was read (Ex475, Em530).

Recombinant human TDO, sequence (P48775 whole entry): as the sequence (P48775 whole entry) above

SMILES | hTDO biochemical assay pIC50
COc1cccc2[nH]cc(C3=CCN(S(C)(=O)=O)CC3)c12 [Compound 197] | + (+ = pIC50 4.00-4.99)
CC(=O)N1CC=C(c2c[nH]c3cnccc23)CC1 [Compound 198] | + (+ = pIC50 4.00-4.99)
COc1ccc2[nH]cc(C3CCN(C(C)=O)CC3)c2c1 [Compound 199] | + (+ = pIC50 4.00-4.99)
Cn1cc(C2=CCN(S(C)(=O)=O)CC2)c2ccccc21 [Compound 204] | + (+ = pIC50 4.00-4.99)
CC(=O)N1CC=C(c2c[nH]c3cc(C)ccc23)CC1 [Compound 205] | + (+ = pIC50 4.00-4.99)
CS(=O)(=O)N1CC=C(c2c[nH]c3ccccc23)CC1 [Compound 209] | ++ (++ = pIC50 5.00-5.99)
CC(=O)N1CC=C(c2c[nH]c3ccccc23)CC1 [Compound 210] | ++ (++ = pIC50 5.00-5.99)
NS(=O)(=O)N1CCC(c2c[nH]c3ccccc23)CC1 [Compound 218] | + (+ = pIC50 4.00-4.99)
CS(=O)(=O)N1CC=C(c2c[nH]c3cc(Cl)c(F)cc23)CC1 [Compound 227] | + (+ = pIC50 4.00-4.99)
NS(=O)(=O)N1CCC(c2c[nH]c3cc(F)ccc23)CC1 [Compound 249] | + (+ = pIC50 4.00-4.99)
O=C(C(F)F)N1CCC(c2c[nH]c3cc(F)ccc23)CC1 [Compound 260] | + (+ = pIC50 4.00-4.99)

molecular target: Recombinant human IDO (Homo sapiens, UniProt P14902); test: hIDO biochemical coupled assay; details: 45 μM L-tryptophan, coupled with kynurenine formamidase
Method: as §1
Recombinant human IDO or TDO was incubated in 50 mM KPO4 (pH 7.0), 0.5 mM EGTA, 0.5 mM EDTA, 0.05% Triton™ X100, 20 mM ascorbate, 10 μM methylene blue, 500 U/ml catalase, 50 μg/ml KynB (kynurenine formamidase).

Recombinant human IDO, sequence (P14902 whole entry): as the sequence (P14902 whole entry) above

SMILES | hIDO biocehmical assay pIC50
CS(=O)(=O)N1CCN(c2c[nH]c3ccccc23)CC1 [Compound 108] | +− (+− = pIC50 <4.00)
CC(=O)N1CC=C(c2c[nH]c3ccc(OCc4ccccc4)cc23)CC1 [Compound 155] | +− (+− = pIC50 <4.00)
CC(=O)N1CC=C(c2c[nH]c3cc(OCc4ccccc4)ccc23)CC1 [Compound 156] | +− (+− = pIC50 <4.00)
CC(=O)N1CC=C(c2c[nH]c3cccnc23)CC1 [Compound 157] | +− (+− = pIC50 <4.00)
CC(=O)N1CCC(c2c[nH]c3ccc(F)cc23)CC1 [Compound 158] | +− (+− = pIC50 <4.00)
CS(=O)(=O)N1CCC(c2c[nH]c3ccc(F)cc23)CC1 [Compound 159] | +− (+− = pIC50 <4.00)
Cc1[nH]c2ccccc2c1C1=CCN(S(C)(=O)=O)CC1 [Compound 160] | +− (+− = pIC50 <4.00)
Cc1[nH]c2ccccc2c1C1CCN(S(C)(=O)=O)CC1 [Compound 161] | +− (+− = pIC50 <4.00)
COc1cccc2[nH]cc(C3=CCN(C(C)=O)CC3)c12 [Compound 169] | +− (+− = pIC50 <4.00)
CS(=O)(=O)N1CC=C(c2c[nH]c3ccncc23)CC1 [Compound 170] | +− (+− = pIC50 <4.00)
CS(=O)(=O)N1CC=C(c2c[nH]c3cnccc23)CC1 [Compound 171] | +− (+− = pIC50 <4.00)
CC(=O)N1CC=C(c2c[nH]c3ccncc23)CC1 [Compound 172] | +− (+− = pIC50 <4.00)
Fc1ccc2c(C3CCN(c4ncccn4)CC3)c[nH]c2c1 [Compound 180] | +− (+− = pIC50 <4.00)
CC(=O)N1CCCC(c2c[nH]c3cc(F)ccc23)CC1 (stereo not drawn) [Compound 181] | +− (+− = pIC50 <4.00)
CS(=O)(=O)N1CCCC(c2c[nH]c3cc(F)ccc23)CC1 (stereo not drawn) [Compound 182] | +− (+− = pIC50 <4.00)
Cc1noc(N2CCC(c3c[nH]c4cc(F)ccc34)CC2)n1 [Compound 183] | +− (+− = pIC50 <4.00)
Cc1nc(N2CCC(c3c[nH]c4cc(F)ccc34)CC2)no1 [Compound 184] | +− (+− = pIC50 <4.00)
CC1CN(c2c[nH]c3ccccc23)CCN1S(C)(=O)=O (stereo not drawn) [Compound 186] | +− (+− = pIC50 <4.00)
CN1CCN(c2c[nH]c3ccccc23)CC1=O [Compound 189] | +− (+− = pIC50 <4.00)
Cn1cccc1C(=O)N1CCC(c2c[nH]c3cc(F)ccc23)CC1 [Compound 278] | + (+ = pIC50 4.00-4.99)

Reference: patent US9931347B2, “Pharmaceutical compound” (IOmet Pharma Ltd., priority 2013, dated 2018)
